15 compounds from ChEMBL document CHEMBL3400104, “Discovery of a potent, orally available dual CysLT₁ and CysLT₂ antagonist with dicarboxylic acid” (Bioorg Med Chem, 2015) can be followed below.

Molecules are shown by their SMILES.

A short description of series [1]: Oral bioavailability in rat at 30 mg/kg. Particulars: in vivo. The format is ADME, organism-based.
Series [2] in a line: Apparent permeability across apical to basolateral or basolateral to apical side in human Caco2 cells at 1 uM after 2 hrs by LC/MS/MS analysis. Particulars: Caco-2. It counts as ADME, cell-based.
Series [3] is described as follows: Clearance in rat at 1 mg/kg, iv. The format is ADME, organism-based. Further details: dose 1 mg/kg, route intravenous. Particulars: in vivo.
The nature of series [4]: Half life in rat at 30 mg/kg, po. The format is ADME, organism-based. Further details: dose 30 mg/kg, route oral. Particulars: in vivo.
Series [5] is described as follows: Volume of distribution at steady state in rat at 1 mg/kg, iv. It counts as ADME, organism-based. Details: dose 1 mg/kg, route intravenous. Particulars: in vivo, read-out: Vdss.
Series [6] concerns the target T1, Cysteinyl leukotriene receptor 1 (Homo sapiens, UniProt Q9Y271).
T1 sequence (Q9Y271 whole entry): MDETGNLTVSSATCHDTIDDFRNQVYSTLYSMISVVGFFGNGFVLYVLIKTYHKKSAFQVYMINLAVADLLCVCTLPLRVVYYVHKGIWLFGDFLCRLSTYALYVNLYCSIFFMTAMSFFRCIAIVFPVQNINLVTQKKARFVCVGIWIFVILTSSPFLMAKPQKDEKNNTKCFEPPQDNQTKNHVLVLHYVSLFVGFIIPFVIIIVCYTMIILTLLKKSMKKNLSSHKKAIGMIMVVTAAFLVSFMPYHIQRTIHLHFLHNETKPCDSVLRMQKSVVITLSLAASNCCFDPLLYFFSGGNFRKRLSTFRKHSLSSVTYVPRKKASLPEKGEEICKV
Description: Antagonist activity at human CysLT1 receptor expressed in CHO cells assessed as inhibition of LTD4-inudced intracellular calcium influx preincubated for 30 mins before LTD4 addition by Fura2-AM assay. It counts as functional, cell-based.

Series [7] can be described thus: AUCinf in rat at 1 mg/kg, iv. It counts as ADME, organism-based. Details: dose 1 mg/kg, route intravenous, time infinity. Particulars: plasma.
Series [8] is described as follows: Half life in rat at 1 mg/kg, iv. It counts as ADME, organism-based. Details: dose 1 mg/kg, route intravenous. Particulars: in vivo.
Series [9] can be described thus: Cmax in rat at 30 mg/kg, po. Particulars: in vivo. It counts as ADME, organism-based. Details: dose 30 mg/kg, route oral.
Series [10] addresses T2, Cysteinyl leukotriene receptor 2 (Homo sapiens, UniProt Q9NS75).
T2 sequence (Q9NS75 whole entry): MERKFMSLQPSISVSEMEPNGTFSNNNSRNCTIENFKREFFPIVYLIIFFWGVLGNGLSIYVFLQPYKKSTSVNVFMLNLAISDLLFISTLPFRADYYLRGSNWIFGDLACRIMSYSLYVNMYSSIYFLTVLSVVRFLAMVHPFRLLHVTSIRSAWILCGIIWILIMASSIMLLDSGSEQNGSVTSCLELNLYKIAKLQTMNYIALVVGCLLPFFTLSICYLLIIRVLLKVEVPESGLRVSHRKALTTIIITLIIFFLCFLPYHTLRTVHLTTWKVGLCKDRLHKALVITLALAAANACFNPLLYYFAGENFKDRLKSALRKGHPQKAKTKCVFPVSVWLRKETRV
Description: Antagonist activity at human CysLT2 receptor expressed in HEK293 cells assessed as inhibition of LTD4-inudced intracellular calcium influx preincubated for 30 mins before LTD4 addition by Fura2-AM assay. It counts as functional, cell-based.

A short description of series [11]: AUC in rat at 30 mg/kg, po. It counts as ADME, organism-based. Further details: dose 30 mg/kg, route oral. Particulars: plasma.
The nature of series [12]: Apparent permeability of the compound at pH 7.4 by PAMPA. It counts as physicochemical.
Series [13] in a line: Apparent permeability of the compound at pH 6.2 by PAMPA. It counts as physicochemical.
A short description of series [14]: Cmax in rat at 10 mg/kg, po. The format is ADME, organism-based. Details: dose 10 mg/kg, route oral. Particulars: in vivo.
Series [15] in a line: Oral bioavailability in rat at 10 mg/kg. The format is ADME, organism-based. Particulars: in vivo.
Series [16] can be described thus: AUC in rat at 10 mg/kg, po. The format is ADME, organism-based. Details: dose 10 mg/kg, route oral. Particulars: plasma.
Series [17] can be described thus: Half life in rat at 10 mg/kg, po. Particulars: in vivo. The format is ADME, organism-based. Details: dose 10 mg/kg, route oral.
Series [18] concerns Cavia porcellus. Description: In vivo inhibition of CysLT1 receptor in guinea pig assessed as reduction in LTD4-induced bronchoconstriction at 3 mg/kg, po relative to vehicle treated control. It counts as functional.
Series [19] concerns Cavia porcellus. Description: In vivo inhibition of CysLT1 receptor in po dosed guinea pig assessed as reduction in LTD4-induced bronchoconstriction. It counts as functional, organism-based.

The compound `O=C(O)CCCN1CC(C(=O)O)Oc2c(CCc3ccc(OCCCCc4ccccc4)cc3)cccc21` (stereo unspecified) had a bioavailability in series [1] of 79%. In addition, in series [2], the Papp at 2 h, 1 µM was 2.8 ×10⁻⁶ cm/s. The same compound displayed a clearance in series [3] of 4.8 mL/min/kg. Further, the half-life was 2.5 h in series [4] and 6 h in series [8]. For the same compound, in series [5], the Vd stood at 1.46 L/kg. Also, the IC50 turned out to be 82 nM in series [6] and 16 nM in series [10]. Also, the AUC(0-inf) in [7] was found to be 3700 ng·h/mL. The same compound came in with a Cmax in series [9] of 12000 ng/mL. Also, the AUC in series [11] was 88000 ng·h/mL.

Consider `O=C(O)CCCN1CC(C(=O)O)Oc2c(NC(=O)c3ccc(OCCCCc4ccccc4)cc3)cccc21` (stereo unspecified), for which the Papp at 2 h, 1 µM in [2] came out at 0.18 ×10⁻⁶ cm/s. The half-life in [4] is 3.2 h. Also, the Vd in series [5] turned out to be 0.104 L/kg. The same compound gave an AUC(0-inf) in series [7] of 3500 ng·h/mL. Moreover, in [9], the Cmax worked out at 210 ng/mL.

`O=C(O)CCCN1CC(C(=O)O)Oc2c(/C=C/c3ccc(OCCCCc4ccccc4)cc3)cccc21` (stereo unspecified): the Papp amounted to 0.1 ×10⁻⁶ cm/s in series [12] and 1.1 ×10⁻⁶ cm/s in [13]. This compound also came in with a bioavailability in series [1] of 29%. The Papp at 2 h, 1 µM in series [2] came out at 1.3 ×10⁻⁶ cm/s. The clearance in series [3] is 0.77 mL/min/kg. For the same compound, the results for the half-life in series [4] and in [8] were 3.6 h and 5.6 h, respectively. Also, the Vd in series [5] was 0.365 L/kg. Further, the IC50 in series [6] was 70 nM; in series [10] it was 5.7 nM. This compound yielded an AUC(0-inf) in series [7] of 24000 ng·h/mL. The same compound came in with a Cmax in series [9] of 21000 ng/mL. This compound also registered an AUC in series [11] of 203000 ng·h/mL.

As to `O=C(O)CCCN1CC(CO)Oc2c(NC(=O)c3ccc(OCCCCc4ccccc4)cc3)cccc21` (stereo unspecified), the Papp at 2 h, 1 µM in series [2] came out at 0.17 ×10⁻⁶ cm/s. In addition, the IC50 came out at 740 nM in series [6] and 410 nM in [10].

With `O=C(O)CCCN1CC(c2nnn[nH]2)Oc2c(/C=C/c3ccc(OCCCCc4ccccc4)cc3)cccc21` (stereo unspecified), the Papp at 2 h, 1 µM in series [2] turned out to be 0.16 ×10⁻⁶ cm/s. Moreover, the IC50 turned out to be 0.59 nM in series [6] and 3.4 nM in [10].

`O=C(O)CCCN1CC(C(=O)O)Oc2c(OCc3ccc(OCCCCc4ccccc4)cc3)cccc21` (stereo unspecified) registered a bioavailability in [1] of 20%. Moreover, in series [2], the Papp at 2 h, 1 µM was found to be 0.74 ×10⁻⁶ cm/s. Moreover, in series [3], the clearance turned out to be 2.2 mL/min/kg. Besides, the half-life was 7.4 h in [4] and 6 h in [8]. Moreover, in series [5], the Vd came to 0.18 L/kg. Moreover, in series [6], the IC50 is 58 nM. The AUC(0-inf) in series [7] was determined as 7900 ng·h/mL. Further, the Cmax in series [9] is 5600 ng/mL. The compound also returned an AUC in series [11] of 48000 ng·h/mL.

In [1], `O=C(O)CCCN1CC(c2nnn[nH]2)Oc2c(NC(=O)c3ccc(OCCCCc4ccccc4)cc3)cccc21` (stereo unspecified) displayed a bioavailability of 1%. For the same compound, the apparent permeability (Papp) at 2 h, 1 µM in [2] is 0.11 ×10⁻⁶ cm/s. For the same compound, the clearance in [3] is 7.8 mL/min/kg. For the same compound, the half-life in [4] is 11 h; in series [8], 4 h. The Vd in [5] turned out to be 0.342 L/kg. In addition, the IC50 in series [6] amounted to 0.79 nM; in [10] it was 0.49 nM. In addition, the AUC(0-inf) in series [7] stood at 2100 ng·h/mL. Besides, in [9], the Cmax worked out at 40 ng/mL. Further, the exposure (AUC) in [11] was found to be 700 ng·h/mL.

`O=C(O)CCCOc1nc2cccc(/C=C/c3ccc(OCCCCOc4ccccc4)cc3)c2nc1C(=O)O`: the Papp in [12] is below 0.1 ×10⁻⁶ cm/s; in series [13] it was 11 ×10⁻⁶ cm/s. The Papp at 2 h, 1 µM in series [2] was found to be 11 ×10⁻⁶ cm/s. Also, the values for the IC50 in series [6] and in series [10] were 490 nM and 75 nM, respectively.

As to `O=C(O)CCCn1cc(C(=O)O)c(=O)c2c(/C=C/c3ccc(OCCCCOc4ccccc4)cc3)cccc21`, the results for the Papp in [12] and in series [13] were 12 ×10⁻⁶ cm/s and 13 ×10⁻⁶ cm/s, respectively. The Papp at 2 h, 1 µM in [2] came to 13 ×10⁻⁶ cm/s. The IC50 in [6] turned out to be 250 nM; in series [10], 370 nM.

On to `CS(=O)(=O)NC(=O)C1CN(CCCC(=O)O)c2cccc(NC(=O)c3ccc(OCCCCc4ccccc4)cc3)c2O1` (stereo unspecified), for which, in [2], the Papp at 2 h, 1 µM was 0.06 ×10⁻⁶ cm/s. Moreover, the IC50 stood at 22 nM in series [6] and 16 nM in series [10].

With `O=C(O)CCCN1CCOc2c(NC(=O)c3ccc(OCCCCc4ccccc4)cc3)cccc21`, the Papp at 2 h, 1 µM in series [2] came to 0.17 ×10⁻⁶ cm/s. Moreover, the IC50 came out at 1900 nM in [6] and 4300 nM in series [10].

Regarding `O=C(O)CCCN1CC(C(=O)NS(=O)(=O)c2ccccc2)Oc2c(NC(=O)c3ccc(OCCCCc4ccccc4)cc3)cccc21` (stereo unspecified), the Papp at 2 h, 1 µM in series [2] came out at 0.06 ×10⁻⁶ cm/s. Besides, the IC50 amounted to 70 nM in series [6] and 5.7 nM in [10].

Turning to `O=C(O)CCCN1CC(C(=O)O)Oc2c(/C=C/c3ccc(OCCCCOc4ccccc4)cc3)cccc21` (stereo unspecified), the values for the Papp in series [12] and in [13] were below 0.1 ×10⁻⁶ cm/s and 7.8 ×10⁻⁶ cm/s, respectively. Further, the Papp at 2 h, 1 µM in series [2] came to 7.8 ×10⁻⁶ cm/s. In addition, the values for the half-inhibitory concentration (IC50) in [6] and in series [10] were 24 nM and 0.31 nM, respectively.

In [14], `O=C(O)CCCN1CC(c2nnn[nH]2)Oc2c(CCc3ccc(OCCCCc4ccccc4)cc3)cccc21` (stereo unspecified) displayed a Cmax of 400 ng/mL. Moreover, the bioavailability in [15] was 15%. Further, the Papp at 2 h, 1 µM in series [2] was determined as 0.52 ×10⁻⁶ cm/s. For the same compound, the clearance in [3] is 15 mL/min/kg. The same compound showed an AUC in series [16] of 1800 ng·h/mL. Also, the Vd in series [5] is 0.999 L/kg. For the same compound, the IC50 in [6] turned out to be 35 nM; in [10], 15 nM. The compound further returned an AUC(0-inf) in series [7] of 1200 ng·h/mL. Besides, the half-life was 2.9 h in [17] and 3.8 h in series [8].

`O=C(O)CCCn1cc(CC(=O)O)c2c(/C=C/c3ccc(OCCCCOc4ccccc4)cc3)cccc21`: the Cmax in series [14] was found to be 33000 ng/mL. Further, the bioavailability in series [15] worked out at 100%. For the same compound, the clearance in series [3] is 0.65 mL/min/kg. In [16], this compound registered an exposure (AUC) of 324000 ng·h/mL. For the same compound, the inhibition in vivo at 3 mg/kg with Cavia porcellus [18] was 45%. The Vd in series [5] amounted to 0.208 L/kg. The compound further displayed an AUC(0-inf) in series [7] of 28000 ng·h/mL. For the same compound, the half-life in series [17] was 4.7 h; in series [8], 7.1 h. Besides, the inhibition entry in the series with Cavia porcellus [19] was “Dose-dependent effect”.
